Reference: patent US20240270699A1, “COMPOUNDS HAVING N-ARYLPYRIMIDIN-2-AMINE DERIVATIVES AS THERAPEUTIC AGENTS” (Lomond Therapeutics, Inc., priority 2021, published 2024)
Read-outs that look alike come from different tables or passages of the source.

Assays:
recombinant HPK1 protein = biological target: T1, recombinant HPK1 protein (Homo sapiens, UniProt Q92918); assay: Primary assay of HPK1 enzymatic activity inhibition (ADP-Glo luminescence); format: biochemical; settings: recombinant HPK1, MBP substrate, 1 hour at room temperature
T1 construct: purchased Promega V6398
T1 sequence (Q92918 1-346 limits assumed): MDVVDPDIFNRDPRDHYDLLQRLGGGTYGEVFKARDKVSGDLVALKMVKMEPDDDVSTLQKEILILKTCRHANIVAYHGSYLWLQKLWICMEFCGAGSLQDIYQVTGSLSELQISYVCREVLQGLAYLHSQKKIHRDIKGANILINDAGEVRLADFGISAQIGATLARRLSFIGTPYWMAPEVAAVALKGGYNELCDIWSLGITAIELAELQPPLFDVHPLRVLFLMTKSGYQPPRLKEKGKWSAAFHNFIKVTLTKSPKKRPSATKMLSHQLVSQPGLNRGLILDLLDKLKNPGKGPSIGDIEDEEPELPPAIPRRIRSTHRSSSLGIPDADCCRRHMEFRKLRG

Jurkat cells = assay: IL-2 release Jurkat assay (anti-CD3/anti-CD28 stimulation, IL-2 ELISA); format: cell-based, human; settings: activation with 400 ng/mL aCD3 + 400 ng/mL aCD28, 24 hours
[1] = Pharmacokinetic (PK) study in mice; format: in vivo; settings: mouse, plasma, male CD-1 mice, PO 10 mg/kg, solution, vs IV 2 mg/kg, read-out: Fabs, % (percent bioavailability)
[2] = Table B: Jurkat, 1.5 μM of tested compounds
[3] = vehicle 80% PEG400, 10% TPGS and 10% ethanol
[4] = Table C: Jurkat, 6 μM of tested compounds, stimulated vehicle = A
[5] = Table E: Jurkat, 1.5 μM of tested compounds
[6] = Table G: Jurkat, 1.0 μM of tested compounds
[7] = Table F: Jurkat, 1.0 μM of tested compounds

Row | Compound | IC50 (recombinant HPK1 protein) [µM] | bioavailability [1, 3] [%] | other results
1 | O=C1CCc2cc(Nc3ncc(-c4nnco4)c(N[C@H](CO)c4ccccc4)n3)ccc2N1 [Compound 19, 6-[[4-[[(1S)-2-hydroxy-1-phenyl-ethyl]amino]-5-(1,3,4-oxadiazol-2-yl)pyrimidin-2-yl]amino]-3,4-dihydro-1H-quinolin-2-one] | < 0.05 | 16.3 | IL-2, pg/mL stimulated (Jurkat cells; [2]): B (5.0 pg/mL≤IL-2<25.0 pg/mL)
2 | Cc1noc(-c2cnc(Nc3ccc4c(c3)CCC(=O)N4)nc2N[C@H](CO)c2ccccc2)n1 [Compound 86, 6-[[4-[[(1S)-2-hydroxy-1-phenyl-ethyl]amino]-5-(3-methyl-1,2,4-oxadiazol-5-yl)pyrimidin-2-yl]amino]-3,4-dihydro-1H-quinolin-2-one] | < 0.05 | 83.6 | IL-2, pg/mL stimulated (Jurkat cells; [2]): C (25.0 pg/mL≤IL-2<35.0 pg/mL)
3 | CS(=O)(=O)c1ccc(Nc2ncc(-c3nnco3)c(N[C@H](CO)c3ccccc3)n2)cc1F [Compound 161, (2S)-2-{[2-{[3-fluoro-4-(methylsulfonyl)phenyl]amino}-5-(1,3,4-oxadiazol-2-yl)pyrimidin-4-yl]amino}-2-phenylethanol] | < 0.05 |  | IL-2, pg/mL stimulated (Jurkat cells; [4]): C (100 pg/mL≤IL-2<150 pg/mL); bioavailability ([1]; vehicle 20% HP-b-CD): 95.1%
4 | O=S1(=O)CCCc2cc(Nc3ncc(-c4nnco4)c(N[C@H](CO)c4ccccc4)n3)ccc21 [Compound 228, (2S)-2-[[2-[(1,1-dioxo-3,4-dihydro-2H-thiochromen-6-yl)amino]-5-(1,3,4-oxadiazol-2-yl)pyrimidin-4-yl]amino]-2-phenyl-ethanol] | < 0.05 | 11.4 | IL-2, pg/mL stimulated (Jurkat cells; [5]): B (50 pg/mL≤IL-2<100 pg/mL)
5 | Cc1noc(-c2cnc(Nc3ccc(S(C)(=O)=O)c(C)c3)nc2N[C@H](CO)c2ccccc2)n1 [Compound 252, (2S)-2-{[2-{[3-methyl-4-(methylsulfonyl)phenyl]amino}-5-(3-methyl-1,2,4-oxadiazol-5-yl)pyrimidin-4-yl]amino}-2-phenylethanol] | 0.05 to 0.2 | 19.9 | IL-2, pg/mL stimulated (Jurkat cells; [4]): B (50 pg/mL≤IL-2<100 pg/mL)
6 | Cc1noc(-c2cnc(Nc3ccc(S(C)(=O)=O)c(F)c3)nc2N[C@H](CO)c2ccccc2)n1 [Compound 270, (2S)-2-{[2-{[3-fluoro-4-(methylsulfonyl)phenyl]amino}-5-(3-methyl-1,2,4-oxadiazol-5-yl)pyrimidin-4-yl]amino}-2-phenylethanol] | < 0.05 | 76.5 | IL-2, pg/mL stimulated (Jurkat cells; [4]): A (IL-2<50 pg/mL)
7 | Cc1noc(-c2cnc(Nc3ccc4c(c3)CCNC4=O)nc2N[C@H](CO)c2ccccc2)n1 [Compound 558, 6-[[4-[[(1S)-2-hydroxy-1-phenyl-ethyl]amino]-5-(3-methyl-1,2,4-oxadiazol-5-yl)pyrimidin-2-yl]amino]-3,4-dihydro-2H-isoquinolin-1-one] | < 0.05 | 16.3 | IL-2, pg/mL stimulated (Jurkat cells; Table D: Jurkat, 6 μM of tested compounds, stimulated vehicle = B): D (150 pg/mL≤IL-2)
8 | O=C1NCCc2cc(Nc3ncc(-c4nnco4)c(N[C@H](CO)c4ccccc4)n3)ccc21 [Compound 563, 6-[[4-[[(1S)-2-hydroxy-1-phenyl-ethyl]amino]-5-(1,3,4-oxadiazol-2-yl)pyrimidin-2-yl]amino]-3,4-dihydro-2H-isoquinolin-1-one] | < 0.05 | 9.2 | 
9 | Cc1noc(-c2cnc(Nc3ccc4c(c3)CNC4=O)nc2N[C@H](CO)c2ccccc2)n1 [Compound 571, 5-[[4-[[(1S)-2-hydroxy-1-phenyl-ethyl]amino]-5-(3-methyl-1,2,4-oxadiazol-5-yl)pyrimidin-2-yl]amino]isoindolin-1-one] | < 0.05 | 8 | IL-2, pg/mL stimulated (Jurkat cells; [2]): C (25.0 pg/mL≤IL-2<35.0 pg/mL)
10 | COc1cccc([C@@H](CO)Nc2nc(Nc3ccc4c(c3)CCNC4=O)ncc2-c2nc(C)no2)c1 [Compound 575, 6-[[4-[[(1S)-2-hydroxy-1-(3-methoxyphenyl)ethyl]amino]-5-(3-methyl-1,2,4-oxadiazol-5-yl)pyrimidin-2-yl]amino]-3,4-dihydro-2H-isoquinolin-1-one] | < 0.05 |  | IL-2, pg/mL stimulated (Jurkat cells; [5]): C (100 pg/mL≤IL-2<150 pg/mL)
11 | Cc1noc(-c2cnc(Nc3ccc4c(c3)CC(C)(C)NC4=O)nc2N[C@H](CO)c2ccccc2)n1 [Compound 578, 6-[[4-[[(1S)-2-hydroxy-1-phenyl-ethyl]amino]-5-(3-methyl-1,2,4-oxadiazol-5-yl)pyrimidin-2-yl]amino]-3,3-dimethyl-2,4-dihydroisoquinolin-1-one] | < 0.05 |  | IL-2, pg/mL stimulated (Jurkat cells; [6]): C (100 pg/mL≤IL-2<150 pg/mL)
12 | Cc1noc(-c2cnc(Nc3ccc4c(c3)C(C)(C)NC4=O)nc2N[C@H](CO)c2ccccc2)n1 [Compound 579, 5-[[4-[[(1S)-2-hydroxy-1-phenyl-ethyl]amino]-5-(3-methyl-1,2,4-oxadiazol-5-yl)pyrimidin-2-yl]amino]-3,3-dimethyl-isoindolin-1-one] | < 0.05 |  | IL-2, pg/mL stimulated (Jurkat cells; [7]): A (IL-2<50 pg/mL)
13 | Cc1noc(-c2cnc(Nc3ccc4c(c3)CCN(COCC[Si](C)(C)C)C4=O)nc2N[C@H](CO)c2ccccc2)n1 [Compound 582, 6-[[4-[[(1S)-2-hydroxy-1-phenyl-ethyl]amino]-5-(3-methyl-1,2,4-oxadiazol-5-yl)pyrimidin-2-yl]amino]-2-(2-trimethylsilylethoxymethyl)-3,4-dihydroisoquinolin-1-one] | 0.05 to 0.2 |  | IL-2, pg/mL stimulated (Jurkat cells; [7]): B (50 pg/mL≤IL-2<100 pg/mL)
14 | CN(C)Cc1noc(-c2cnc(Nc3ccc4c(c3)CCCS4(=O)=O)nc2N[C@H](CO)c2ccccc2)n1 [Compound 583, (2S)-2-[[5-[3-[(dimethylamino)methyl]-1,2,4-oxadiazol-5-yl]-2-[(1,1-dioxo-3,4-dihydro-2H-thiochromen-6-yl)amino]pyrimidin-4-yl]amino]-2-phenyl-ethanol] | < 0.05 |  | IL-2, pg/mL stimulated (Jurkat cells; [7]): B (50 pg/mL≤IL-2<100 pg/mL)
15 | Cn1cc(-c2cnc(Nc3ccc4c(c3)CCNC4=O)nc2N[C@H](CO)c2ccccc2)cn1 [Compound 584, 6-[[4-[[(1S)-2-hydroxy-1-phenyl-ethyl]amino]-5-(1-methylpyrazol-4-yl)pyrimidin-2-yl]amino]-3,4-dihydro-2H-isoquinolin-1-one] | < 0.05 |  | IL-2, pg/mL stimulated (Jurkat cells; [7]): A (IL-2<50 pg/mL)
16 | CN(C)Cc1noc(-c2cnc(Nc3ccc4c(c3)CNC4=O)nc2N[C@H](CO)c2ccccc2)n1 [Compound 585, 5-[[5-[3-[(dimethylamino)methyl]-1,2,4-oxadiazol-5-yl]-4-[[(1S)-2-hydroxy-1-phenyl-ethyl]amino]pyrimidin-2-yl]amino]isoindolin-1-one] | < 0.05 |  | IL-2, pg/mL stimulated (Jurkat cells; [6]): D (150 pg/mL≤IL-2)
17 | O=S1(=O)CCCc2cc(Nc3ncc(-c4nc(CN5CCCC5)no4)c(N[C@H](CO)c4ccccc4)n3)ccc21 [Compound 586, (2S)-2-[[2-[(1,1-dioxo-3,4-dihydro-2H-thiochromen-6-yl)amino]-5-[3-(pyrrolidin-1-ylmethyl)-1,2,4-oxadiazol-5-yl]pyrimidin-4-yl]amino]-2-phenyl-ethanol] | < 0.05 |  | IL-2, pg/mL stimulated (Jurkat cells; [6]): D (150 pg/mL≤IL-2)
18 | O=C1NCc2cc(Nc3ncc(-c4nc(CN5CCCC5)no4)c(N[C@H](CO)c4ccccc4)n3)ccc21 [Compound 587, 5-[[4-[[(1S)-2-hydroxy-1-phenyl-ethyl]amino]-5-[3-(pyrrolidin-1-ylmethyl)-1,2,4-oxadiazol-5-yl]pyrimidin-2-yl]amino]isoindolin-1-one] | < 0.05 |  | IL-2, pg/mL stimulated (Jurkat cells; [6]): D (150 pg/mL≤IL-2)
